Reference: ChEMBL document CHEMBL1817560, “Selectivity of kinase inhibitor fragments” (J Med Chem, 2011)

Key:
[1] = target: RAC-alpha serine/threonine-protein kinase (Homo sapiens, UniProt P31749); assay: Inhibition of AKT1 expressed in Escherichia coli or baculovirus-infected insect cells by scintillation proximity assay
[2] = target: Tyrosine-protein kinase SYK (Homo sapiens, UniProt P43405); assay: Inhibition of SYK expressed in Escherichia coli or baculovirus-infected insect cells by TR-FRET assay
[3] = target: T1, Inhibitor of nuclear factor kappa-B kinase subunit beta (Homo sapiens, UniProt O14920); assay: biochemical; format: cell-based
T1 sequence (O14920 whole entry): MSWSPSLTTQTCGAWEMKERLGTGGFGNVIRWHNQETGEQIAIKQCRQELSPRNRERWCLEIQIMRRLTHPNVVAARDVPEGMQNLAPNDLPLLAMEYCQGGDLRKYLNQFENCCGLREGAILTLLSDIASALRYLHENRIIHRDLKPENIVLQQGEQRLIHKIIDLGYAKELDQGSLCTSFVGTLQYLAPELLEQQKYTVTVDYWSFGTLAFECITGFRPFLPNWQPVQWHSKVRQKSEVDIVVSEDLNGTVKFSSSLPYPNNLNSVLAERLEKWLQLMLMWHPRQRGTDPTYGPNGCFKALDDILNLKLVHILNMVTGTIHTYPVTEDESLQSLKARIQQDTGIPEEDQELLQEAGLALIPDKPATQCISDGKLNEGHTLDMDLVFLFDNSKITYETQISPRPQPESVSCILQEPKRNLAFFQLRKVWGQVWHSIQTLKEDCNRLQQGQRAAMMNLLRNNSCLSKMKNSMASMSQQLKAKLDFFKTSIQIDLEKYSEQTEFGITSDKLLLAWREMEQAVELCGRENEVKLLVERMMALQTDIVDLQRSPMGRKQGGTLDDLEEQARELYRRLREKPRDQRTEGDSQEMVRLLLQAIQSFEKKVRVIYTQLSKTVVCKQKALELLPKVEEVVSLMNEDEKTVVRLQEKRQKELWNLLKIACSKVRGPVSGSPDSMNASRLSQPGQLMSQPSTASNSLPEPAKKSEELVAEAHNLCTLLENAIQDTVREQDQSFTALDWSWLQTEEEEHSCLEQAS

[4] = target: Mitogen-activated protein kinase 14 (Homo sapiens, UniProt Q16539); assay: Inhibition of p38alpha expressed in Escherichia coli or baculovirus-infected insect cells by TR-FRET assay
Chain of Mitogen-activated protein kinase 14 (Q16539 whole entry): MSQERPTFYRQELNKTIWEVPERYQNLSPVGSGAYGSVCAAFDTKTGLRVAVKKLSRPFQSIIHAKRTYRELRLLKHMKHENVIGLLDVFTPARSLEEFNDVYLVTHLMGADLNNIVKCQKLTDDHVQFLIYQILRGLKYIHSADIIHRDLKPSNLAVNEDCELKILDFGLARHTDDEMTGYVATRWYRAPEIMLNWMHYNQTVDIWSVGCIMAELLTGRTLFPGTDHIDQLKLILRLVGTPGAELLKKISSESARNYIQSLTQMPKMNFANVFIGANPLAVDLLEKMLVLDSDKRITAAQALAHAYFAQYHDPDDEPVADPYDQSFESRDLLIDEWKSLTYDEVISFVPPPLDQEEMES

[5] = target: Mitogen-activated protein kinase 8 (Homo sapiens, UniProt P45983); assay: Inhibition of JNK1 expressed in Escherichia coli or baculovirus-infected insect cells by TR-FRET assay
Chain of Mitogen-activated protein kinase 8 (P45983 whole entry): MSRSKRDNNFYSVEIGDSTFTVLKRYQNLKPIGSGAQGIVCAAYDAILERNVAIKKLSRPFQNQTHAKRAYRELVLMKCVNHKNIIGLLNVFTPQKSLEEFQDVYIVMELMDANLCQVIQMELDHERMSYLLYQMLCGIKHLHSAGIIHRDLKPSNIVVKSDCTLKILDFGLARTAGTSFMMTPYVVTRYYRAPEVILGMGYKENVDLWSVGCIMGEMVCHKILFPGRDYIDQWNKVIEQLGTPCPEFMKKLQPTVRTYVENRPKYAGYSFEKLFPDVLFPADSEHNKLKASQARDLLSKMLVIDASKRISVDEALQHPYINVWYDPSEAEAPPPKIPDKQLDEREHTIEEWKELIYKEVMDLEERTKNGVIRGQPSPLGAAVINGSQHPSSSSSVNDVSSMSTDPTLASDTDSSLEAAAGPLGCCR

Chain of RAC-alpha serine/threonine-protein kinase (P31749 whole entry): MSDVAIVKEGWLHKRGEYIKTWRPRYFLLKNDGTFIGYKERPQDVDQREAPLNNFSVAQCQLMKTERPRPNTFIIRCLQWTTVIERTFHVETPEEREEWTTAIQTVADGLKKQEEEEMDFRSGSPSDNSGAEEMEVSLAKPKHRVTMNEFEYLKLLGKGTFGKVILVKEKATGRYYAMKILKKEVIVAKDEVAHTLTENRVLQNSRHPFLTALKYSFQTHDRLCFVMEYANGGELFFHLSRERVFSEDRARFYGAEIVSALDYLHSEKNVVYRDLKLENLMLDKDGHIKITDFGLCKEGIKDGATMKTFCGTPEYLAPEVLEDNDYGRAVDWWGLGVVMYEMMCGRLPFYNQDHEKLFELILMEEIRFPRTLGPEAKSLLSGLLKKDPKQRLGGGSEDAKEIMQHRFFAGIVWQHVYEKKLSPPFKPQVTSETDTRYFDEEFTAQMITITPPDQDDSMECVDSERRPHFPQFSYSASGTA

SMILES | IC50 ([1]; read-out: IC50) [µM] | IC50 ([1]; read-out: pIC50 (converted)) [µM] | IC50 [2] [µM] | IC50 ([3]; read-out: IC50) [µM] | IC50 ([3]; read-out: pIC50 (converted)) [µM] | IC50 ([4]; read-out: IC50) [µM] | IC50 ([4]; read-out: pIC50 (converted)) [µM] | IC50 ([5]; read-out: IC50) [µM] | IC50 ([5]; read-out: pIC50 (converted)) [µM]
c1ccc2[nH]ncc2c1 [INDAZOLE] | > 400 | > 398 | – | – | – | – | – | – | –
O=C(Nc1ccccc1)Nc1ccccc1 | – | – | > 660 | – | – | – | – | – | –
c1ccc(Nc2ncccn2)cc1 | – | – | – | > 667 | > 631 | > 667 | > 631 | – | –
c1cnc2[nH]ccc2c1 | > 400 | > 398 | – | > 667 | > 631 | – | – | > 667 | > 631
